Where two headings read alike, the source gives them in different places.
Assays:
[1] = target: T1, bovine erythrocyte CA-II (Bos taurus, UniProt P00921); test: CA-II in vitro inhibition assay; assay type: biochemical; details: for Percent inhibition (0.5 mM): compound at 0.5 mM; for inhibition at 500 µM: read-out: Percent inhibition (0.5 mM)
[2] = target: T1, bovine erythrocyte CA-II; test: Enzyme kinetics study of CA-II inhibition; assay type: biochemical
[3] = read-out: IC50 ± μM (SEM), bovine CA-II, triplicate, SEM

T1 sequence (P00921 whole entry): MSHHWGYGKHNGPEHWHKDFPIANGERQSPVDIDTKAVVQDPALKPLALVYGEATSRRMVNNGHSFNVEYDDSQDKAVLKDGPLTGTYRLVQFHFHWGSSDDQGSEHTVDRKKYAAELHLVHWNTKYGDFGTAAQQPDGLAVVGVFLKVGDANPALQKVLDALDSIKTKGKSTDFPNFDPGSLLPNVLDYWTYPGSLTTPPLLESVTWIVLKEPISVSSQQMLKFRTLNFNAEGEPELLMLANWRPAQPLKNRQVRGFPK

| SMILES | Percent inhibition (0.5 mM) ([1]; bovine CA-II) [%] | IC50 [1, 3] [µM] | IC50 [1] [µM] | inhibition at 500 µM [1] [%] | Ki [2] [µM] | type of inhibition ([2]; bovine CA-II, Lineweaver–Burk plot) |
| --- | --- | --- | --- | --- | --- | --- |
| Clc1ccc(-c2cs/c(=N/N=C/c3ccc(N4CCOCC4)cc3)n2CCc2ccccc2)cc1 [Compound 15, 4-{4-[(E)-{[(E)-4-(4-chlorophenyl)-3-phenethylthiazol-2(3H)-ylidene]hydrazone}methyl]phenyl}morpholine] | 75.36 | 49.3 ± 1.35 |  |  |  |  |
| C(=N\N=c1\scc(-c2ccccc2)n1CCN1CCOCC1)/c1ccc(N2CCOCC2)cc1 [Compound 7, 4-{2-[(E)-2-{[(E)-4-morpholinobenzylidene]hydrazineylidene}-4-phenylthiazol-3(2H)-yl]ethyl}morpholine] |  |  | 37.2 ± 1.37 | 80.9 |  |  |
| C(=N\N=c1\scc(-c2ccccc2)n1-c1cccc2ccccc12)/c1ccc(N2CCOCC2)cc1 [Compound 10, 4-{4-[(E)-{[(E)-3-(naphthalen-1-yl)-4-phenylthiazol-2(3H)-ylidene] hydrazone}methyl]phenyl} morpholine] | 80.20 | 39.7 ± 1.41 |  |  |  |  |
| COc1ccc(-n2c(-c3ccc(Cl)cc3)cs/c2=N/N=C/c2ccc(N3CCOCC3)cc2)cc1 [Compound 19, 4-{4-[(E)-{[(E)-4-(4-chlorophenyl)-3-(4-methoxyphenyl)thiazol-2(3H)-ylidene] hydrazone}methyl]phenyl}morpholine] | 70.35 | 48.2 ± 1.19 |  |  |  |  |
| Clc1ccc(-c2cs/c(=N/N=C/c3ccc(N4CCOCC4)cc3)n2CCN2CCOCC2)cc1 [Compound 17, 4-{2-[(E)-2-{[(E)-4-morpholinobenzylidene]hydrazineylidene}-4-(4-chlorophenyl)thiazol-3(2H)-yl]ethyl}morpholine] |  |  | 51.2 ± 1.26 | 71.2 |  |  |
| Cc1ccc(Cn2c(-c3ccc(Cl)cc3)cs/c2=N/N=C/c2ccc(N3CCOCC3)cc2)cc1 [Compound 16, 4-{4-[(E)-{[(E)-4-(4-chlorophenyl)-3-(4-methylbenzyl)thiazol-2(3H)-ylidene]hydrazone}methyl]phenyl}morpholine] | 70.20 | 56.3 ± 1.4 |  |  |  |  |
| O=[N+]([O-])c1ccc(-c2cs/c(=N/N=C/c3ccc(N4CCOCC4)cc3)n2CCN2CCOCC2)cc1 [Compound 24, 4-{2-[(E)-2-{[(E)-4-morpholinobenzylidene]hydrazineylidene}-4-(4-nitrophenyl)thiazol-3(2H)-yl]ethyl}morpholine] |  |  | 14.7 ± 0.29 | 90.2 | 9.64 ± 0.007 | competitive type of inhibition |

Second part, the molecule after the results:

| Percent inhibition (0.5 mM) ([1]; bovine CA-II) [%] | IC50 [1, 3] [µM] | IC50 [1] [µM] | inhibition at 500 µM [1] [%] | Ki [2] [µM] | type of inhibition ([2]; bovine CA-II, Lineweaver–Burk plot) | SMILES |
| --- | --- | --- | --- | --- | --- | --- |
| 89.76 | 17.2 ± 0.36 |  |  |  |  | Cc1cccc(C)c1-n1c(-c2ccc([N+](=O)[O-])cc2)cs/c1=N/N=C/c1ccc(N2CCOCC2)cc1 [Compound 26, 4-{4-[(E)-{[(E)-3-(2,6-dimethylphenyl)-4-(4-nitrophenyl)thiazol-2(3H)ylidene] hydrazone}methyl]phenyl}morpholine] |
| 86.61 | 26.5 ± 0.68 |  |  |  |  | C(=N\N=c1\scc(-c2ccccc2)n1Cc1ccccc1)/c1ccc(N2CCOCC2)cc1 [Compound 5, 4-{4-[(E)-{[(E)-3-benzyl-4-phenylthiazol-2(3H)-ylidene] hydrazone}methyl]phenyl} morpholine] |
| 84.95 | 23.8 ± 0.44 |  |  |  |  | Brc1ccc(-c2cs/c(=N/N=C/c3ccc(N4CCOCC4)cc3)n2-c2ccccc2)cc1 [Compound 27, 4-{4-[(E)-{[(E)-4-(4-bromophenyl)-3-phenylthiazol-2(3H)-ylidene]hydrazone}methyl]phenyl}morpholine] |
| 84.29 | 34.6 ± 1.1 |  |  |  |  | C(=N\N=c1\scc(-c2ccccc2)n1CCc1ccccc1)/c1ccc(N2CCOCC2)cc1 [Compound 6, 4-{4-[(E)-{[(E)-3-phenethyl-4-phenylthiazol-2(3H)-ylidene]hydrazone}methyl]phenyl} morpholine] |
| 83.11 | 27.4 ± 0.47 |  |  |  |  | O=[N+]([O-])c1cccc(-n2c(-c3ccccc3)cs/c2=N/N=C/c2ccc(N3CCOCC3)cc2)c1 [Compound 8, 4-{4-[(E)-{[(E)-3-(3-nitrophenyl)-4-phenylthiazol-2(3H)-ylidene] hydrazone}methyl]phenyl} morpholine] |
| 81.46 | 38.6 ± 0.48 |  |  |  |  | Cc1cccc(C)c1-n1c(-c2ccc(Cl)cc2)cs/c1=N/N=C/c1ccc(N2CCOCC2)cc1 [Compound 21, 4-{4-[(E)-{[(E)-4-(4-chlorophenyl)-3-(2,6-dimethylphenyl)thiazol-2(3H)-ylidene]hydrazone}methyl]phenyl}morpholine] |
| 86.44 | 30.2 ± 0.59 |  |  |  |  | C(=N\N=c1\scc(-c2ccccc2)n1C1CCCCC1)/c1ccc(N2CCOCC2)cc1 [Compound 3, 4-{4-[(E)-{[(E)-3-cyclohexyl-4-phenylthiazol-2(3H)-ylidene]hydrazone}methyl]phenyl} morpholine] |
| 88.69 | 16.5 ± 0.4 |  |  |  |  | COc1ccc(-n2c(-c3ccc([N+](=O)[O-])cc3)cs/c2=N/N=C/c2ccc(N3CCOCC3)cc2)cc1 [Compound 25, 4-{4-[(E)-{[(E)-3-(4-methoxyphenyl)-4-(4-nitrophenyl)thiazol-2(3H)-ylidene]hydrazone}methyl]phenyl}morpholine] |
| 80.69 | 35.4 ± 0.64 |  |  |  |  | Clc1ccc(-c2cs/c(=N/N=C/c3ccc(N4CCOCC4)cc3)n2Cc2ccccc2)cc1 [Compound 14, 4-{4-[(E)-{[(E)-3-benzyl-4-(4-chlorophenyl)thiazol-2(3H)-ylidene]hydrazone}methyl]phenyl}morpholine] |
